In patent publication US8901118B2, “Compounds and methods for kinase modulation, and indications therefor” (Plexxikon Inc., priority 2010, dated 2014):

Legend:
BCR-NTRK1 BaF3 cells = target: T1, BCR-NTRK1 BaF3 cells (Homo sapiens, UniProt P04629); experiment: BaF3 BCR-NTRK1 cell proliferation assay (ATPlite); type: cell-based; settings: read-out: Inhibition of Cell Proliferation IC50, BCR/BaF3 TrkA
T1 construct: fused on or other part: P11274 (Breakpoint cluster region protein)
Experimental: (§1) Compounds are assessed in a variety of cell based assays. For example BaF3 cells engineered with any of BCR-FMS, BCR-KIT, BCR-FLT3, BCR-NTRK1, BCR-NTRK2, and BCR-NTRK3, are used in cell proliferation assays to assess inhibitory activity of Fms, Kit, Flt-3, TrkA, TrkB, and TrkC, respectively. An MV-4-11 (leukemia) cell proliferation assay is used to assess inhibitory activity in Flt-3, and SKNSH (human neuroblastoma) cell proliferation assay is used to assess efficacy of Fms/Trk inhibitors. Additional cells may be assayed similarly to assess the efficacy of Fms/Trk inhibitors, such as MiaPaCa (human pancreatic cancer) and Capan-1 (human pancreatic carcinoma) cells. Reagent and assay conditions are as follows: • BaF3 cells: • Maintained in RPMI containing 10% FBS, 1% PenStrep, 1% NEAA, and 1% L-Glutamine, supplemented with 1 mg/mL G418 and 5% WEHI-CM (or recombinant murine IL-3). • Confluent cells are split 1:50 to 1:100 every 3-4 days. • MV-4-11 cells: • Maintained in Iscove's Modified Dulbecco's Medium containing 10% FBS. • Confluent cells are split 1:4 every 3-4 days. • SKNSH cells: RPMI containing 10% FBS. On day 1, cells are counted, then centrifuged in a conical tube for 5 minutes at 1000 rpm. The supernatant is removed and cells are re-suspended as follows: • BaF3: resuspend in growth media +1 mg/mL G418 (without WEHFIL-3) to 2×10^5 cells/mL. • MV-4-11: resuspend in growth media to 5×10^5 cells/mL. • SKNSH: resuspend in growth media to 2×10^4 cells/mL. The cells are plated (50 μL, 150 μL for SKNSH cells) in each well of a 96-well dish (Corning 3610) and incubated at 37° C. in 5% CO2 overnight, cells plated to a final concentration of cells as follows: • BaF3: 10,000 cells per well. • MV-4-11: 25,000 cells per well. • SKNSH: 3,000 cells per well. On day 2, compound at a maximum concentration of 5 mM is serially diluted 1:3 for a total of 8 point titration with DMSO as a control. A 1 μL aliquot of each dilution point is added to 249 μL growth media and 50 μL is added to a well containing cells, providing 10 μM compound for the maximum concentration point. The cells are incubated for 3 days at 37° C. in 5% CO2. For SKNSH cells, a 0.75 μL aliquot of appropriate dilution in DMSO is added to 150 μL of cells. On day 5, ATPlite 1 step Luminescence Assay System (Perkin Elmer #6016739) is brought to room temperature along with the cell cultures. ATPlite is added to each well as follows: • BaF3: 25 μL per well. • MV-4-11: 40 μL per well. • SKNSH: 20 μL per well. The cells are incubated at room temperature for 10 minutes, then luminescence is read on Safire reader. The measured luminescence correlates directly with cell number, such that the reading as a function of compound concentration is used to determine the IC50 value.
(§2) It is understood that the results of these assays may vary as assay conditions are varied. Inhibition levels determined under the conditions described herein represent a relative activity for the compounds tested under the specific conditions employed. The cell based assays are likely to show variability due to the complexity of the system and the sensitivity thereof to any changes in the assay conditions. […] Results for compounds that are tested and show substantially no inhibition below the highest tested concentration are represented as “-” in the tables below. In some instances, the compounds were not tested in all of the assays, or assay results were not valid, as indicated by NA in the tables below.

BCR-NTRK2 BaF3 cells = target: T2, BCR-NTRK2 BaF3 cells (Homo sapiens, UniProt Q16620); experiment: BaF3 BCR-NTRK2 cell proliferation assay (ATPlite); type: cell-based; settings: read-out: Inhibition of Cell Proliferation IC50, BCR/BaF3 TrkB
T2 construct: fused on or other part: P11274 (Breakpoint cluster region protein)
Experimental: as §1, §2

BCR-NTRK3 BaF3 cells = target: T3, BCR-NTRK3 BaF3 cells (Homo sapiens, UniProt Q16288); experiment: BaF3 BCR-NTRK3 cell proliferation assay (ATPlite); type: cell-based; settings: read-out: Inhibition of Cell Proliferation IC50, BCR/BaF3 TrkC
T3 construct: fused on or other part: P11274 (Breakpoint cluster region protein)
Experimental: as §1, §2

CYP2C19 = CYP2C19 (Homo sapiens, UniProt P33261); experiment: CYP2C19 inhibition (fluorescent substrate CEC); type: in vitro ADME; settings: read-out: Cyp IC50 2C19
Experimental: (§3) CYP (Cytochrome P450) enzymes are the major drug metabolizing enzymes present in the liver. The inhibition of CYP enzyme activity (IC50) for each of CYP1A2, CYP2C19, CYP2C9, CYP2D6, CYP3A4(BFC) and CYP3A4(BQ) is determined for compounds, where inhibition of metabolism of a known substrate leads to a decrease in the fluorescence of the metabolized product. The fluorescence of the product is monitored as a function of compound concentration. Compounds are dissolved in DMSO to a concentration of 100 mM. These are diluted 1 μL into 82 μL of acetonitrile. An 11 μL aliquot of this solution is then added to 204 μL of cofactor mix (1.3% NADPH Regeneration system Solution A, 1.04% NADPH Regeneration system Solution B from BD Biosciences, 5% acetonitrile and 0.05% DMSO). These are then serially diluted 1:1 (160 μL to 160 μL co-factor mix) for a total of 10 points. A 10 μL aliquot of this final mixture is dispensed into 384 well assay plates and incubated for 10 minutes at 37° C. […] Assay plates are incubated at 37° C. (CYP1A2-15 min; CYP2C9-45 min; CYP2C19, 2D6 and 3A4-30 min) and read in a Tecan Safire 2 plate reader (CYP1A2, 2C19 and 3A4 409 ex/460 em; CYP2C9 and 2D6 409 ex/530 em). The signal versus compound concentration is used to determine the IC50. The enzymes and substrates for this assay are obtained from BD Biosciences.

CYP2C9 = CYP2C9 (Homo sapiens, UniProt P11712); experiment: CYP2C9 inhibition (fluorescent substrate MFC); type: in vitro ADME; settings: read-out: Cyp IC50 2C9
Experimental: as §3

CYP3A4(BFC) = CYP3A4(BFC) (Homo sapiens, UniProt P08684); experiment: CYP3A4(BFC) inhibition; type: in vitro ADME; settings: CYP3A4, substrate BFC; read-out: Cyp IC50 3A4(BFC)
Experimental: as §3

Sequence of CYP2C9 (P11712 whole entry): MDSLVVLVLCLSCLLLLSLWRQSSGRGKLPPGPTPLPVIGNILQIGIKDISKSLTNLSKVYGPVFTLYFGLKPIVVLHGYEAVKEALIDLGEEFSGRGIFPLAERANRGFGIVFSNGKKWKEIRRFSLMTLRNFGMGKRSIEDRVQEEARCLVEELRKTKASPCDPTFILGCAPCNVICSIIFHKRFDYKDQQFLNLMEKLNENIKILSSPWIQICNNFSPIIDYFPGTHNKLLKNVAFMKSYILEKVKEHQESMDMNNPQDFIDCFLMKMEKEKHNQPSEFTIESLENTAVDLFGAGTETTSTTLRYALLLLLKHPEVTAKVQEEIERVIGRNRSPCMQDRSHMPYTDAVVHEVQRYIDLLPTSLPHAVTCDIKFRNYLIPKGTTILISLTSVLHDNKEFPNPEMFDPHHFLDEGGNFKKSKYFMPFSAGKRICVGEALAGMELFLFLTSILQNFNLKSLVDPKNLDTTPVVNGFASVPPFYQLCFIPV
Sequence of CYP2C19 (P33261 whole entry): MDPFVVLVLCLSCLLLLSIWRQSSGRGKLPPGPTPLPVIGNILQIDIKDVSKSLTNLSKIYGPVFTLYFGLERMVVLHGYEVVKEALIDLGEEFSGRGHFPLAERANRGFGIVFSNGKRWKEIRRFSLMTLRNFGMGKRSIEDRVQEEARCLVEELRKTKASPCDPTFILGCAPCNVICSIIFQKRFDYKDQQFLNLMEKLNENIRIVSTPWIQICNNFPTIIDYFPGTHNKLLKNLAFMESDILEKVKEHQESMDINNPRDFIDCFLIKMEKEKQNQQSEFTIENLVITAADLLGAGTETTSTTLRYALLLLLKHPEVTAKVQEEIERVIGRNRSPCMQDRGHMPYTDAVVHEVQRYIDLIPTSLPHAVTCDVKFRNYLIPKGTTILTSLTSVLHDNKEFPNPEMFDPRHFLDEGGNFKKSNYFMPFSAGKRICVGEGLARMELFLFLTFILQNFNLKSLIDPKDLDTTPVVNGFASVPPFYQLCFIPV
Sequence of CYP3A4(BFC) (P08684 whole entry): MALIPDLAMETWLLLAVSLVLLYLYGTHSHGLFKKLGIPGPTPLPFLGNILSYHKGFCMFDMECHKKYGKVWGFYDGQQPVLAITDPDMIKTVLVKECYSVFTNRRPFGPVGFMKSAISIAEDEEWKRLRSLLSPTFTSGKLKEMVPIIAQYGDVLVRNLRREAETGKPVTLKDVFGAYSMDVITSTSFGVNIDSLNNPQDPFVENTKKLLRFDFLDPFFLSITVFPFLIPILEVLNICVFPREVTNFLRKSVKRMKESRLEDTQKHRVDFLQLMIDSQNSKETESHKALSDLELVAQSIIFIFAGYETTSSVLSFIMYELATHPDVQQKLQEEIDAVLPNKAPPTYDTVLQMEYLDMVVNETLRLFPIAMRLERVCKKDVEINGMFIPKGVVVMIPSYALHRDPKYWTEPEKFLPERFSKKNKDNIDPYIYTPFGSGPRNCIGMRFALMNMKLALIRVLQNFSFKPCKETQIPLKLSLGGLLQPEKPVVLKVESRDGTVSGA
T3 sequence (Q16288 whole entry, the tested form may be a part): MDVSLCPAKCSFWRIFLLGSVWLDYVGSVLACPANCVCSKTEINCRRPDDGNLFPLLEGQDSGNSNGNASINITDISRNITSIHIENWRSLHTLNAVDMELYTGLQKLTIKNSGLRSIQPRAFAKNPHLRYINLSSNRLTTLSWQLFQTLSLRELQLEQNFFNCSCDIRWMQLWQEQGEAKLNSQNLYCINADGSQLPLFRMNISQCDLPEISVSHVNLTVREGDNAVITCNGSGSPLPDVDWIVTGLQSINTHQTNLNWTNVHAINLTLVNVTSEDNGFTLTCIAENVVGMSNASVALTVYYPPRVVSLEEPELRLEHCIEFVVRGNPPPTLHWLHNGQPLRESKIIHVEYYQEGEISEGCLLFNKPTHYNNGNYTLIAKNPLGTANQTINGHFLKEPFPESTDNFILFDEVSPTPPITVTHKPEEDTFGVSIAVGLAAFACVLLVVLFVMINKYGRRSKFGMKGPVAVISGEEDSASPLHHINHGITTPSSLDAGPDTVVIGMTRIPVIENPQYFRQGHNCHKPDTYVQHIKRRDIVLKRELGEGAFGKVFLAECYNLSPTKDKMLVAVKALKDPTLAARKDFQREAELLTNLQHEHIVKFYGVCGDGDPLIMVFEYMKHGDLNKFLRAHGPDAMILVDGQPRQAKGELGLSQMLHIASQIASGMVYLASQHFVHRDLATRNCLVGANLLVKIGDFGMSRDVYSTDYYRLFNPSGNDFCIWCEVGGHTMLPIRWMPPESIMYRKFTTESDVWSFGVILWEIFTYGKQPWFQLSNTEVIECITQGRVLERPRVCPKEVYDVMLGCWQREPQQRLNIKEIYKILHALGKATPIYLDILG
T1 sequence (P04629 510-781): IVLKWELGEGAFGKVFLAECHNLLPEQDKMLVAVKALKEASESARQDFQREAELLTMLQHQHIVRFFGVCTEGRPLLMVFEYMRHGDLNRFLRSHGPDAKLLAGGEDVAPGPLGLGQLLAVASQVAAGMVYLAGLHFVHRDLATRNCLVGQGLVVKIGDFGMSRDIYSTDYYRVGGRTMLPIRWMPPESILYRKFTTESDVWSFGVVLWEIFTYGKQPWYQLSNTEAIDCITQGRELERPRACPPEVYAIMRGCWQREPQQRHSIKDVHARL
T2 sequence (Q16620 538-807): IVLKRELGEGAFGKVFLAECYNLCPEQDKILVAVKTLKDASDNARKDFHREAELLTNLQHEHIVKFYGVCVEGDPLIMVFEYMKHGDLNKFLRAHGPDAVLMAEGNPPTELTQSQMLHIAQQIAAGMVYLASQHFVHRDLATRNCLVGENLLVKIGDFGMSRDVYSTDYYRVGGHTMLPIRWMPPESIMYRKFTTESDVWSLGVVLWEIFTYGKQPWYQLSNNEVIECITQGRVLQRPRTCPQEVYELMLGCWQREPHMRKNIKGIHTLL

Row | SMILES | IC50 (BCR-NTRK1 BaF3 cells) [µM] | IC50 (BCR-NTRK2 BaF3 cells) [µM] | IC50 (BCR-NTRK3 BaF3 cells) [µM] | IC50 (CYP2C19) [µM] | IC50 (CYP2C9) [µM] | IC50 (CYP3A4(BFC)) [µM]
1 | CC1CCC(Nc2ncc(Cc3c[nH]c4ncc(Cl)cc34)cn2)CC1 (stereo not drawn) [Compound P-3009, [5-(5-Chloro-1H-pyrrolo[2,3-b]pyridin-3-ylmethyl)-pyrimidin-2-yl]-(4-methyl-cyclohexyl)-amine] | > 10 | > 10 | > 10 | < 5 | > 10 | 5 to 10
2 | Cc1cnc2[nH]cc(Cc3cnc(Nc4ccc(F)cc4)nc3)c2c1 [Compound P-3010, (4-Fluoro-phenyl)-[5-(5-methyl-1H-pyrrolo[2,3-b]pyridin-3-ylmethyl)-pyrimidin-2-yl]-amine] | > 10 | > 10 | > 10 | > 10 | > 10 | > 10
3 | Clc1ccc(Nc2ncc(Cc3c[nH]c4ncc(Cl)cc34)cn2)cc1 [Compound P-3011, (4-Chloro-phenyl)-[5-(5-chloro-1H-pyrrolo[2,3-b]pyridin-3-ylmethyl)-pyrimidin-2-yl]-amine] | < 1 | < 1 | < 0.1 | > 10 | > 10 | > 10
4 | Fc1ccc(Nc2ncc(Cc3c[nH]c4ncc(Cl)cc34)cn2)cc1 [Compound P-3012, [5-(5-Chloro-1H-pyrrolo[2,3-b]pyridin-3-ylmethyl)-pyrimidin-2-yl]-(4-fluoro-phenyl)-amine] | < 1 | < 1 | < 1 | > 10 | > 10 | > 10
5 | Fc1nc(NC2CCC(F)(F)CC2)ccc1Cc1c[nH]c2ncc(Cl)cc12 [Compound P-3013, [5-(5-Chloro-1H-pyrrolo[2,3-b]pyridin-3-ylmethyl)-6-fluoro-pyridin-2-yl]-(4,4-difluoro-cyclohexyl)-amine] | > 10 | > 10 | > 10 | < 5 | > 10 | > 10
6 | COc1ccc(Nc2ccc(C(=O)c3c[nH]c4ncnc(NC(C)(C)C)c34)c(F)n2)cn1 [Compound P-4055, [4-(tert-butylamino)-7H-pyrrolo[2,3-d]pyrimidin-5-yl]-[2-fluoro-6-[(6-methoxy-3-pyridyl)amino]-3-pyridyl]methanone] | < 1 | < 0.01 | < 0.01 | < 10 | > 10 | > 10
7 | COc1ccc(Nc2ccc(C(=O)c3c[nH]c4ncnc(NC5CCC(F)(F)CC5)c34)c(F)n2)cn1 [Compound P-4056, [4-[(4,4-difluorocyclohexyl)amino]-7H-pyrrolo[2,3-d]pyrimidin-5-yl]-[2-fluoro-6-[(6-methoxy-3-pyridyl)amino]-3-pyridyl]methanone] | < 1 | < 0.01 | < 0.01 | 5 to 20 | > 10 | > 10
8 | O=C(c1ccc(NC2CCC(F)(F)CC2)nc1Cl)c1c[nH]c2ncnc(NCC(F)(F)F)c12 [Compound P-4057, [2-chloro-6-[(4,4-difluorocyclohexyl)amino]-3-pyridyl]-[4-(2,2,2-trifluoroethylamino)-7H-pyrrolo[2,3-d]pyrimidin-5-yl]methanone] | > 1 | > 1 | < 1 | > 10 | > 10 | > 10
9 | CNc1ncnc2[nH]cc(C(=O)c3ccc(NC4CCC(F)(F)CC4)nc3Cl)c12 [Compound P-4058, [2-chloro-6-[(4,4-difluorocyclohexyl)amino]-3-pyridyl]-[4-(methylamino)-7H-pyrrolo[2,3-d]pyrimidin-5-yl]methanone] | < 1 | < 1 | < 0.1 | > 10 | > 10 | > 10
10 | O=C(c1ccc(NC2CCC(F)(F)CC2)nc1Cl)c1c[nH]c2ncnc(NC3CC3)c12 [Compound P-4059, [2-chloro-6-[(4,4-difluorocyclohexyl)amino]-3-pyridyl]-[4-(cyclopropylamino)-7H-pyrrolo[2,3-d]pyrimidin-5-yl]methanone] | < 1 | < 0.1 | < 0.1 | > 10 | 5 to 10 | > 10
11 | CCNc1ncnc2[nH]cc(C(=O)c3ccc(Nc4ccc(C5CC5)nc4)nc3F)c12 [Compound P-4060, [6-[(6-cyclopropyl-3-pyridyl)amino]-2-fluoro-3-pyridyl]-[4-(ethylamino)-7H-pyrrolo[2,3-d]pyrimidin-5-yl]methanone] | < 0.01 | < 0.01 | < 0.01 | > 10 | > 10 | > 10
12 | O=C(c1ccc(NC2CCC(F)(F)CC2)nc1F)c1c[nH]c2ncnc(NCC(F)(F)F)c12 [Compound P-4061, [6-[(4,4-difluorocyclohexyl)amino]-2-fluoro-3-pyridyl]-[4-(2,2,2-trifluoroethylamino)-7H-pyrrolo[2,3-d]pyrimidin-5-yl]methanone] | < 0.1 | < 0.01 | < 0.01 | > 10 | > 10 | > 10
13 | O=C(c1ccc(NC2CCC(F)(F)CC2)nc1F)c1c[nH]c2ncnc(NC3CC3)c12 [Compound P-4062, [4-(cyclopropylamino)-7H-pyrrolo[2,3-d]pyrimidin-5-yl]-[6-[(4,4-difluorocyclohexyl)amino]-2-fluoro-3-pyridyl]methanone] | < 0.01 | < 0.01 | < 0.01 | > 10 | > 10 | > 10
14 | CNc1ncnc2[nH]cc(C(=O)c3ccc(NC4CCC(F)(F)CC4)nc3F)c12 [Compound P-4063, [6-[(4,4-difluorocyclohexyl)amino]-2-fluoro-3-pyridyl]-[4-(methylamino)-7H-pyrrolo[2,3-d]pyrimidin-5-yl]methanone] | < 0.01 | < 0.1 | < 0.01 | > 10 | > 10 | > 10
